According to EP1923473B1, “Bis-diglycolamides (BISDGA) as new extractants for lanthanides [Ln(III)] and actinides [An(III)] from aqueous high-level wastes” (Universidad Autónoma de Madrid, priority 2006, dated 2008):

Columns and labels:
[1] = Batch extraction from simulated HLLW from the PUREX process; assay type: physicochemical; details: 0.1 mol/L in TPH/1-octanol (90:10)
Source text: (§1) The feed solution used for the extraction tests is a simulated solution of an HLLW from the PUREX process, the composition of which is shown in Table 4. Table 4: Composition of the simulated HLLW-PUREX solution used for the extraction tests
(§2) The composition of the HLLW corresponds to a burn-up of 33 GWd/tHM, the generated volume of HLLW being 5000 1/t of fuel. The feed was spiked with ^241Am, ^244Cm, ^252Cf and ^152Eu. Oxalic acid and N-(2-hydroxyethyl)ethylenediaminotriacetate (HEDTA) were also added before the extraction tests.
(§3) 500 µL of the aqueous and organic phases were spiked with 10 µL of a tracer solution containing 241Am, 244Cm, 252Cf and ^152Eu, and were equilibrated for 10 minutes while they were stirred vigorously in a vortex stirrer. After the separation of the phases by centrifugation, 200 µL aliquots of each phase were taken for the determination of the concentration of ^241Am and ^152Eu using a high-purity germanium spectrometer system (EG&G Ortec). The nuclides ^241Am, ^244Cm and ^252Cf were measured by alpha spectrometry with an α-Analyst device of the company Canberra-Packard GmbH, Germany.
(§4) The concentrations of the stable elements were determined by mass spectrometry with an inductively coupled plasma source (ICP-MS) in a DRC Elan 6100 device of Perkin Elmer Sciex. The aqueous phase was measured directly after the appropriate dilution. The organic phase was analyzed after having mineralized the organic matter by microwave acid digestion and subsequent dilution.
(§5) The distribution coefficients were calculated for each element according to section C).
(§6) A 0.1 mol/L solution of compound 4 in the "TPH/1-octanol (90:10)%vol" mixture was prepared. Extraction experiments were carried out with said simulated HLLW in a pure form and also adding oxalic acid and HEDTA to it. These complexing agents have shown to be effective in the DIAMEX process for the complexing of Mo, Zr (H2C2O4) and Pd (HEDTA).
(§7) Extraction experiments were carried out with said simulated HLLW in a pure form and also adding oxalic acid and HEDTA to it.

[2] = Batch extraction from simulated HLLW from the PUREX process, gamma spectrometry; assay type: physicochemical; details: 0.1 mol/L in TPH/1-octanol (90:10)
Source text: as §1, §2, §3, §4, §5, §6, §7

[3] = Oxalic acid 0.2 mol/L, HEDTA 0.05 mol/L, TBP 0.5 mol/L
[4] = Oxalic acid 0.2 mol/L, HEDTA 0.05 mol/L, TBP No
[5] = Oxalic acid 0.3 mol/L, HEDTA 0.05 mol/L, TBP 0.5 mol/L
[6] = Oxalic acid 0.3 mol/L, HEDTA 0.05 mol/L, TBP No
[7] = Oxalic acid No, HEDTA No, TBP 0.5 mol/L
[8] = Oxalic acid No, HEDTA No, TBP No

2-Dioctylcarbamoylmethoxy-N-[3-[(2-dioctylcarbamoyl-methoxy-acetylamino)methyl]benzyl]acetamide [Compound 4]
Distribution coefficients Ag [1, 3]: 0.013 | Distribution coefficients Ba [1, 3]: 0.0002 | Distribution coefficients Cd [1, 3]: 0.035 | Distribution coefficients Ce [1, 3]: 16 | Distribution coefficients Cf-252 [1, 3]: 702 | Distribution coefficients Cm-244 [1, 3]: 83 | Distribution coefficients Cs [1, 3]: 0.000087 | Distribution coefficients Eu [1, 3]: 362 | Distribution coefficients Eu-152 [1, 3]: 430 | Distribution coefficients Gd [1, 3]: 91 | Distribution coefficients La [1, 3]: 10 | Distribution coefficients Mo [1, 3]: 0.065 | Distribution coefficients Nd [1, 3]: 52 | Distribution coefficients Pd [1, 3]: 0.081 | Distribution coefficients Pr [1, 3]: 26 | Distribution coefficients Rb [1, 3]: 0.0082 | Distribution coefficients Rh [1, 3]: 0.00068 | Distribution coefficients Ru [1, 3]: 0.29 | Distribution coefficients Sm [1, 3]: 253 | Distribution coefficients Y [1, 3]: 1698 | Distribution coefficients Zr [1, 3]: 0.062 | Distribution coefficients Ag [1, 4]: 0.013 | Distribution coefficients Ba [1, 4]: 0.00019 | Distribution coefficients Cd [1, 4]: 0.034 | Distribution coefficients Ce [1, 4]: 36 | Distribution coefficients Cf-252 [1, 4]: 2057 | Distribution coefficients Cm-244 [1, 4]: 262 | Distribution coefficients Cs [1, 4]: 0.000087 | Distribution coefficients Eu [1, 4]: 764 | Distribution coefficients Eu-152 [1, 4]: 379 | Distribution coefficients Gd [1, 4]: 239 | Distribution coefficients La [1, 4]: 21 | Distribution coefficients Mo [1, 4]: 0.087 | Distribution coefficients Nd [1, 4]: 142 | Distribution coefficients Pd [1, 4]: 0.073 | Distribution coefficients Pr [1, 4]: 59 | Distribution coefficients Rb [1, 4]: 0.0093 | Distribution coefficients Rh [1, 4]: 0.00086 | Distribution coefficients Ru [1, 4]: 0.29 | Distribution coefficients Sm [1, 4]: 690 | Distribution coefficients Y [1, 4]: 1766 | Distribution coefficients Zr [1, 4]: 0.096 | Distribution coefficients Ag [1, 5]: 0.012 | Distribution coefficients Ba [1, 5]: 0.0002 | Distribution coefficients Cd [1, 5]: 0.036 | Distribution coefficients Ce [1, 5]: 21 | Distribution coefficients Cf-252 [1, 5]: 1403 | Distribution coefficients Cm-244 [1, 5]: 133 | Distribution coefficients Cs [1, 5]: 0.000087 | Distribution coefficients Eu [1, 5]: 446 | Distribution coefficients Eu-152 [1, 5]: 348 | Distribution coefficients Gd [1, 5]: 190 | Distribution coefficients La [1, 5]: 13.7 | Distribution coefficients Mo [1, 5]: 0.094 | Distribution coefficients Nd [1, 5]: 68 | Distribution coefficients Pd [1, 5]: 0.041 | Distribution coefficients Pr [1, 5]: 32 | Distribution coefficients Rb [1, 5]: 0.0081 | Distribution coefficients Rh [1, 5]: 0.00067 | Distribution coefficients Ru [1, 5]: 0.24 | Distribution coefficients Sm [1, 5]: 378 | Distribution coefficients Y [1, 5]: 1658 | Distribution coefficients Zr [1, 5]: 0.022 | Distribution coefficients Ag [1, 6]: 0.013 | Distribution coefficients Ba [1, 6]: 0.0002 | Distribution coefficients Cd [1, 6]: 0.037 | Distribution coefficients Ce [1, 6]: 32 | Distribution coefficients Cf-252 [1, 6]: 1816 | Distribution coefficients Cm-244 [1, 6]: 286 | Distribution coefficients Cs [1, 6]: 0.000604 | Distribution coefficients Eu [1, 6]: 513 | Distribution coefficients Eu-152 [1, 6]: 553 | Distribution coefficients Gd [1, 6]: 258 | Distribution coefficients La [1, 6]: 18 | Distribution coefficients Mo [1, 6]: 0.115 | Distribution coefficients Nd [1, 6]: 120 | Distribution coefficients Pd [1, 6]: 0.043 | Distribution coefficients Pr [1, 6]: 53 | Distribution coefficients Rb [1, 6]: 0.0082 | Distribution coefficients Rh [1, 6]: 0.00069 | Distribution coefficients Ru [1, 6]: 0.17 | Distribution coefficients Sm [1, 6]: 451 | Distribution coefficients Y [1, 6]: 1708 | Distribution coefficients Zr [1, 6]: 0.099 | Distribution coefficients Ag [1, 7]: 39 | Distribution coefficients Ba [1, 7]: 0.00019 | Distribution coefficients Cd [1, 7]: 0.033 | Distribution coefficients Ce [1, 7]: 16 | Distribution coefficients Cf-252 [1, 7]: 692 | Distribution coefficients Cm-244 [1, 7]: 95 | Distribution coefficients Cs [1, 7]: 0.000082 | Distribution coefficients Eu [1, 7]: 327 | Distribution coefficients Eu-152 [1, 7]: 294 | Distribution coefficients Gd [1, 7]: 122 | Distribution coefficients La [1, 7]: 10 | Distribution coefficients Mo [1, 7]: 0.066 | Distribution coefficients Nd [1, 7]: 55 | Distribution coefficients Pd [1, 7]: 2.6 | Distribution coefficients Pr [1, 7]: 26 | Distribution coefficients Rb [1, 7]: 0.0080 | Distribution coefficients Rh [1, 7]: 0.00069 | Distribution coefficients Ru [1, 7]: 0.27 | Distribution coefficients Sm [1, 7]: 233 | Distribution coefficients Y [1, 7]: 1773 | Distribution coefficients Zr [1, 7]: 295 | Distribution coefficients Ag [1, 8]: 37 | Distribution coefficients Ba [1, 8]: 0.00019 | Distribution coefficients Cd [1, 8]: 0.034 | Distribution coefficients Ce [1, 8]: 23 | Distribution coefficients Cf-252 [1, 8]: 2079 | Distribution coefficients Cm-244 [1, 8]: 191 | Distribution coefficients Cs [1, 8]: 0.000084 | Distribution coefficients Eu [1, 8]: 685 | Distribution coefficients Eu-152 [1, 8]: 293 | Distribution coefficients Gd [1, 8]: 166 | Distribution coefficients La [1, 8]: 13 | Distribution coefficients Mo [1, 8]: 0.069 | Distribution coefficients Nd [1, 8]: 94 | Distribution coefficients Pd [1, 8]: 2.5 | Distribution coefficients Pr [1, 8]: 39 | Distribution coefficients Rb [1, 8]: 0.0078 | Distribution coefficients Rh [1, 8]: 0.00066 | Distribution coefficients Ru [1, 8]: 0.25 | Distribution coefficients Sm [1, 8]: 615 | Distribution coefficients Y [1, 8]: 1753 | Distribution coefficients Zr [1, 8]: 133 | Distribution coefficients Am-241, γ [2, 3]: 63 | Distribution coefficients Am-241, γ [2, 4]: 131 | Distribution coefficients Am-241, γ [2, 5]: 82 | Distribution coefficients Am-241, γ [2, 6]: 141 | Distribution coefficients Am-241, γ [2, 7]: 70 | Distribution coefficients Am-241, γ [2, 8]: 99
